Reference: patent US20180303086A1, “An Antimicrobial Composition” (Conopco, Inc., d/b/a UNILEVER, priority 2015, published 2018)

Test: Solubility product and silver ion solubility of silver compounds in water at 25° C.
Assay type: physicochemical
Settings: calculated from Ksp, [Ag+]=(Ksp·x)^(1/(x+1))
Source text: More particularly, silver ion solubility [Ag+], a value given in mol/L may be calculated using the formula: […]

**Q.** Which “Silver Ion Solubility [Ag+]” value does the source give for `[Cl][Ag]` [Silver chloride] here?
**A.** Its value is 13 µM.
